Reference: patent US12390470B2, “1-methylxanthine-based bioactive composition and method of use thereof” (Ingenious Ingredients, LP, priority 2021, dated 2025)

Tests used:
healthy adult male = assay: Subject report during work out; type: in vivo, human; details: 200 mg prior to work out
Method: Subject was a healthy adult. Subject was administered 200 mg of 1-methylxanthine prior to work out.
During another trial subject was administered 100 mg of 1-methylxanthine together with 100 mg of paraxanthine, prior to work out.

participants [1] = assay: Diastolic blood pressure, crossover vs caffeine; type: in vivo, human
Method: All supplements were orally ingested with 8 fluid ounces of cold tap water. Resting Heart Rate, Systolic and Diastolic Blood Pressure was measured at baseline, 30, 60, 90, 120 and 180 minutes after ingestion.

gastrocnemius = assay: Gastrocnemius muscle mass after 28 days supplementation; type: in vivo, mice
Method: (§1) Twenty-four 8-week-old male Swiss Albino mice were housed in an animal room at a constant temperature (22±3° C.) and humidity (30%-70%) under a 12:12 h light-dark cycle with standard laboratory diet (Purina 5L79, Rat and Mouse 18% protein; PMI Nutrition International, Brentwood, MO, USA). Distilled water was provided ad libitum. All animal experiments were reviewed and approved by the Institutional Animal Ethical Committee (IAEC) of Radiant Research Services Pvt. Ltd (Bangalore, India). All research was conducted in accordance with the guidelines of the committee for the purpose of control and supervision of experiments on animals.
After one week of acclimation, the animals were randomly divided by body weight into three groups (n=8 per group in each test) for oral treatment once a day, at approximately same time each day (±1 hour), for 28 consecutive days: (1) vehicle control or (2) 1-methylxanthine or (3) 1-methylxanthine plus paraxanthine. The dose administered to the mice was calculated using US Food and Drug Administration for human equivalence doses (HED), assuming a human weight of 60 kg. […] Food intake was monitored daily while water intake was ad libitum. BW was recorded weekly. […]

participants [2] = assay: Systolic blood pressure, crossover vs caffeine; type: in vivo, human
Description: (§2) All supplements were orally ingested with 8 fluid ounces of cold tap water.

participants [3] = assay: Resting heart rate, crossover vs caffeine; type: in vivo, human
Description: as §2

[4] = Organ weight (liver, heart), Example 3; type: in vivo; details: mice, 28 days
Method: as §1
After one week of acclimation, the animals were randomly divided by body weight into three groups (n=8 per group in each test) for oral treatment once a day, at approximately same time each day (±1 hour), for 28 consecutive days: (1) vehicle control or (2) 1-methylxanthine or (3) 1-methylxanthine plus paraxanthine. The dose administered to the mice was calculated using US Food and Drug Administration for human equivalence doses (HED), assuming a human weight of 60 kg. […] Food intake was monitored daily while water intake was ad libitum.

[5] = Person one, time 0, 200 mg oral
[6] = Person two, time 0, 200 mg oral

**Q.** With `Cn1c(=O)[nH]c2nc[nH]c2c1=O` [1-methylxanthine, 1-Methyl-3H-purine-2,6-dione] as the compound, how does the “subject-reported effect during work out” value (healthy adult male) read?
**A.** increased focus, concentration, mood and performance

**Q.** And the “diastolic blood pressure reduced in comparison to CA” value (participants [1]; 200 mg oral)?
**A.** 12%

**Q.** And the “Diastolic Blood Pressure MEAN (30-180)” value (participants [1]; Average)?
**A.** 70.6 mm Hg

**Q.** What about the “Diastolic Blood Pressure Mean Δ from 0” value (participants [1]; Average) of the same compound?
**A.** −1.4 mm Hg

**Q.** And the “Diastolic Blood Pressure MEAN (30-180)” value (participants [1]; Person one)?
**A.** 71.6 mm Hg

**Q.** What about the “Diastolic Blood Pressure Mean Δ from 0” value (participants [1]; Person one) of the same compound?
**A.** −0.4 mm Hg

**Q.** What about the “Diastolic Blood Pressure Δ vs. CA” value (participants [1]; Person one) of the same compound?
**A.** −5.0 mm Hg

**Q.** And the “Diastolic Blood Pressure” value (participants [1]; Person one, 30 min)?
**A.** 71 mm Hg

**Q.** And the “Diastolic Blood Pressure” value (participants [1]; Person one, 60 min)?
**A.** 68 mm Hg

**Q.** And the “Diastolic Blood Pressure” value (participants [1]; Person one, 90 min)?
**A.** 69 mm Hg

**Q.** What about the “Diastolic Blood Pressure” value (participants [1]; Person one, 120 min) of the same compound?
**A.** 71 mm Hg

**Q.** What about the “Diastolic Blood Pressure” value (participants [1]; Person one, 180 min) of the same compound?
**A.** 79 mm Hg

**Q.** And the “Diastolic Blood Pressure” value (participants [1]; [5])?
**A.** 72 mm Hg

**Q.** What about the “Diastolic Blood Pressure MEAN (30-180)” value (participants [1]; Person two) of the same compound?
**A.** 69.6 mm Hg

**Q.** And the “Diastolic Blood Pressure Mean Δ from 0” value (participants [1]; Person two)?
**A.** −2.4 mm Hg

**Q.** What about the “Diastolic Blood Pressure Δ vs. CA” value (participants [1]; Person two) of the same compound?
**A.** −12.2 mm Hg

**Q.** What about the “Diastolic Blood Pressure” value (participants [1]; Person two, 30 min) of the same compound?
**A.** 79 mm Hg

**Q.** And the “Diastolic Blood Pressure” value (participants [1]; Person two, 60 min)?
**A.** 62 mm Hg

**Q.** And the “Diastolic Blood Pressure” value (participants [1]; Person two, 90 min)?
**A.** 70 mm Hg

**Q.** What about the “Diastolic Blood Pressure” value (participants [1]; Person two, 120 min) of the same compound?
**A.** 72 mm Hg

**Q.** And the “Diastolic Blood Pressure” value (participants [1]; Person two, 180 min)?
**A.** 65 mm Hg

**Q.** And the “Diastolic Blood Pressure” value (participants [1]; [6])?
**A.** 72 mm Hg

**Q.** And the “gastrocnemius mass greater compared to control” value (gastrocnemius; 28 days)?
**A.** 1.9%

**Q.** And the gastrocnemius mass (gastrocnemius; 28 days after supplementation)?
**A.** 161.1 ± 4.3 mg

**Q.** What about the “systolic blood pressure change from baseline” value (participants [2]; 200 mg oral) of the same compound?
**A.** did not increase

**Q.** And the “systolic blood pressure reduced in comparison to CA” value (participants [2]; 200 mg oral)?
**A.** 6.1%

**Q.** What about the “Systolic Blood Pressure MEAN (30-180)” value (participants [2]; Average) of the same compound?
**A.** 117.2 mm Hg

**Q.** What about the “Systolic Blood Pressure MEAN (30-180)” value (participants [2]; Person one) of the same compound?
**A.** 123.6 mm Hg

**Q.** And the “Systolic Blood Pressure Mean Δ from 0” value (participants [2]; Person one)?
**A.** −1.6 mm Hg

**Q.** What about the “Systolic Blood Pressure Δ vs. CA” value (participants [2]; Person one) of the same compound?
**A.** −6.4 mm Hg

**Q.** And the “Systolic Blood Pressure” value (participants [2]; Person one, 30 min)?
**A.** 116 mm Hg

**Q.** And the “Systolic Blood Pressure” value (participants [2]; Person one, 60 min)?
**A.** 136 mm Hg

**Q.** And the “Systolic Blood Pressure” value (participants [2]; Person one, 90 min)?
**A.** 108 mm Hg

**Q.** What about the “Systolic Blood Pressure” value (participants [2]; Person one, 120 min) of the same compound?
**A.** 116 mm Hg

**Q.** And the “Systolic Blood Pressure” value (participants [2]; Person one, 180 min)?
**A.** 142 mm Hg

**Q.** What about the “Systolic Blood Pressure” value (participants [2]; [5]) of the same compound?
**A.** 125 mm Hg

**Q.** And the “Systolic Blood Pressure MEAN (30-180)” value (participants [2]; Person two)?
**A.** 110.8 mm Hg

**Q.** And the “Systolic Blood Pressure Mean Δ from 0” value (participants [2]; Person two)?
**A.** −2.2 mm Hg

**Q.** What about the “Systolic Blood Pressure Δ vs. CA” value (participants [2]; Person two) of the same compound?
**A.** −9.6 mm Hg

**Q.** What about the “Systolic Blood Pressure” value (participants [2]; Person two, 30 min) of the same compound?
**A.** 125 mm Hg

**Q.** What about the “Systolic Blood Pressure” value (participants [2]; Person two, 60 min) of the same compound?
**A.** 110 mm Hg

**Q.** What about the “Systolic Blood Pressure” value (participants [2]; Person two, 90 min) of the same compound?
**A.** 113 mm Hg

**Q.** What about the “Systolic Blood Pressure” value (participants [2]; Person two, 120 min) of the same compound?
**A.** 114 mm Hg

**Q.** And the “Systolic Blood Pressure” value (participants [2]; Person two, 180 min)?
**A.** 92 mm Hg

**Q.** What about the “Systolic Blood Pressure” value (participants [2]; [6]) of the same compound?
**A.** 113 mm Hg

**Q.** And the “heart rate change from baseline” value (participants [3]; 200 mg oral)?
**A.** did not increase

**Q.** What about the “heart rate reduced in comparison to CA” value (participants [3]; 200 mg oral) of the same compound?
**A.** 3%

**Q.** And the “Resting Heart Rate MEAN (30-180)” value (participants [3]; Average)?
**A.** 57.9 bpm

**Q.** What about the “Resting Heart Rate Mean Δ from 0” value (participants [3]; Average) of the same compound?
**A.** −9.6 bpm

**Q.** What about the “Resting Heart Rate MEAN (30-180)” value (participants [3]; Person one) of the same compound?
**A.** 53.2 bpm

**Q.** What about the “Resting Heart Rate Mean Δ from 0” value (participants [3]; Person one) of the same compound?
**A.** −11.8 bpm

**Q.** What about the “Resting Heart Rate Δ vs. CA” value (participants [3]; Person one) of the same compound?
**A.** −2.0 bpm

**Q.** What about the “Resting Heart Rate” value (participants [3]; Person one, 30 min) of the same compound?
**A.** 63 bpm

**Q.** What about the “Resting Heart Rate” value (participants [3]; Person one, 60 min) of the same compound?
**A.** 54 bpm

**Q.** And the “Resting Heart Rate” value (participants [3]; Person one, 90 min)?
**A.** 49 bpm

**Q.** And the “Resting Heart Rate” value (participants [3]; Person one, 120 min)?
**A.** 45 bpm

**Q.** What about the “Resting Heart Rate” value (participants [3]; Person one, 180 min) of the same compound?
**A.** 55 bpm

**Q.** What about the “Resting Heart Rate” value (participants [3]; [5]) of the same compound?
**A.** 65 bpm

**Q.** And the “Resting Heart Rate MEAN (30-180)” value (participants [3]; Person two)?
**A.** 62.6 bpm

**Q.** What about the “Resting Heart Rate Mean Δ from 0” value (participants [3]; Person two) of the same compound?
**A.** −2.4 bpm

**Q.** And the “Resting Heart Rate Δ vs. CA” value (participants [3]; Person two)?
**A.** −1.0 bpm

**Q.** What about the “Resting Heart Rate” value (participants [3]; Person two, 30 min) of the same compound?
**A.** 61 bpm

**Q.** What about the “Resting Heart Rate” value (participants [3]; Person two, 60 min) of the same compound?
**A.** 60 bpm

**Q.** And the “Resting Heart Rate” value (participants [3]; Person two, 90 min)?
**A.** 65 bpm

**Q.** What about the “Resting Heart Rate” value (participants [3]; Person two, 120 min) of the same compound?
**A.** 60 bpm

**Q.** What about the “Resting Heart Rate” value (participants [3]; Person two, 180 min) of the same compound?
**A.** 62 bpm

**Q.** And the “Resting Heart Rate” value (participants [3]; [6])?
**A.** 65 bpm

**Q.** What about the Heart weight [4] of the same compound?
**A.** 188.50 ± 3.12 mg

**Q.** What about the Liver weight [4] of the same compound?
**A.** 1850.88 ± 39.96 mg
